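The compound was tested at five concentrations on cells cultured in 96-well plates, with a 48-hour exposure period. Definition used: TGI = concentration required for complete inhibition of growth.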
Legend:
Assay in all cases: growth of human tumour cells (NCI), 48 h
[1] = system: 786-0 renal
[2] = system: A498 renal
[3] = system: A549 NSCLC
[4] = system: ACHN renal
[5] = system: BT-549 breast
[6] = system: CAKI-1 renal
[7] = system: COLO 205 colon
[8] = system: EKVX NSCLC
[9] = system: HCC-2998 colon
[10] = system: HCT-116 colon
[11] = system: HCT-15 colon
[12] = system: HOP-62 NSCLC
[13] = system: HOP-92 NSCLC
[14] = system: HS 578T breast
[15] = system: HT29 colon
[16] = system: IGROV1 ovarian
[17] = system: K-562 leukemia
[18] = system: KM12 colon
[19] = system: LOX IMVI melanoma
[20] = system: M14 melanoma
[21] = system: MALME-3M melanoma
[22] = system: MDA-MB-231 breast
[23] = system: MDA-MB-435
[24] = system: MDA-N
[25] = system: NCI-H226 lung
[26] = system: NCI-H23 lung
[27] = system: NCI-H460 lung
[28] = system: NCI-H522 lung
[29] = system: NCI/ADR-RES ovarian
[30] = system: OVCAR-3 ovarian
[31] = system: OVCAR-4 ovarian
[32] = system: OVCAR-5 ovarian
[33] = system: OVCAR-8 ovarian
[34] = system: PC-3 prostate
[35] = system: RPMI-8226 leukemia
[36] = system: RXF 393 renal
[37] = system: SF-268 CNS
[38] = system: SF-295 CNS
[39] = system: SF-539 CNS
[40] = system: SK-MEL-2 melanoma
[41] = system: SK-MEL-28 melanoma
[42] = system: SK-MEL-5 melanoma
[43] = system: SK-OV-3 ovarian
[44] = system: SN12C renal
[45] = system: SNB-19 CNS
[46] = system: SNB-75 CNS
[47] = system: SW-620 colon
[48] = system: T-47D breast
[49] = system: TK-10 renal
[50] = system: U251 CNS
[51] = system: UACC-257 melanoma
[52] = system: UACC-62 melanoma
[53] = system: UO-31 renal
[54] = system: CCRF-CEM leukemia
[55] = system: DU-145 prostate
[56] = system: HL-60(TB) leukemia
[57] = system: MCF7 breast
[58] = system: MOLT-4 leukemia

Compound: COc1ccc(Cc2c(N)[nH]c(=O)[nH]c2=O)cc1
- TGI [1]: > 100 µM
- TGI [2]: > 100 µM
- TGI [3]: > 100 µM
- TGI [4]: > 100 µM
- TGI [5]: > 100 µM
- TGI [6]: > 100 µM
- TGI [7]: > 100 µM
- TGI [8]: > 100 µM
- TGI [9]: > 100 µM
- TGI [10]: > 100 µM
- TGI [11]: > 100 µM
- TGI [12]: > 100 µM
- TGI [13]: > 100 µM
- TGI [14]: > 100 µM
- TGI [15]: > 100 µM
- TGI [16]: > 100 µM
- TGI [17]: > 100 µM
- TGI [18]: > 100 µM
- TGI [19]: > 100 µM
- TGI [20]: > 100 µM
- TGI [21]: > 100 µM
- TGI [22]: > 100 µM
- TGI [23]: > 100 µM
- TGI [24]: > 100 µM
- TGI [25]: > 100 µM
- TGI [26]: > 100 µM
- TGI [27]: > 100 µM
- TGI [28]: > 100 µM
- TGI [29]: > 100 µM
- TGI [30]: > 100 µM
- TGI [31]: > 100 µM
- TGI [32]: > 100 µM
- TGI [33]: > 100 µM
- TGI [34]: > 100 µM
- TGI [35]: > 100 µM
- TGI [36]: > 100 µM
- TGI [37]: > 100 µM
- TGI [38]: > 100 µM
- TGI [39]: > 100 µM
- TGI [40]: > 100 µM
- TGI [41]: > 100 µM
- TGI [42]: > 100 µM
- TGI [43]: > 100 µM
- TGI [44]: > 100 µM
- TGI [45]: > 100 µM
- TGI [46]: > 100 µM
- TGI [47]: > 100 µM
- TGI [48]: > 100 µM
- TGI [49]: > 100 µM
- TGI [50]: > 100 µM
- TGI [51]: > 100 µM
- TGI [52]: > 100 µM
- TGI [53]: > 100 µM

Compound: OCc1cc2c([nH]c3ccccc32)c(C(O)CO)n1 (stereo not given)
- TGI [1]: > 100 µM
- TGI [2]: > 100 µM
- TGI [3]: > 100 µM
- TGI [4]: > 100 µM
- TGI [5]: > 100 µM
- TGI [6]: > 100 µM
- TGI [54]: > 100 µM
- TGI [7]: > 100 µM
- TGI [55]: > 100 µM
- TGI [8]: > 100 µM
- TGI [9]: > 100 µM
- TGI [10]: > 100 µM
- TGI [11]: > 100 µM
- TGI [56]: > 100 µM
- TGI [13]: > 100 µM
- TGI [14]: > 100 µM
- TGI [15]: > 100 µM
- TGI [16]: > 100 µM
- TGI [17]: > 100 µM
- TGI [18]: > 100 µM
- TGI [19]: > 100 µM
- TGI [20]: > 100 µM
- TGI [21]: > 100 µM
- TGI [57]: > 100 µM
- TGI [22]: > 100 µM
- TGI [23]: > 100 µM
- TGI [24]: > 100 µM
- TGI [58]: > 100 µM
- TGI [25]: > 100 µM
- TGI [26]: > 100 µM
- TGI [27]: > 100 µM
- TGI [28]: > 100 µM
- TGI [29]: > 100 µM
- TGI [30]: > 100 µM
- TGI [31]: > 100 µM
- TGI [32]: > 100 µM
- TGI [33]: > 100 µM
- TGI [34]: > 100 µM
- TGI [35]: > 100 µM
- TGI [37]: > 100 µM
- TGI [38]: > 100 µM
- TGI [39]: > 100 µM
- TGI [40]: > 100 µM
- TGI [41]: > 100 µM
- TGI [42]: > 100 µM
- TGI [43]: > 100 µM
- TGI [44]: > 100 µM
- TGI [45]: > 100 µM
- TGI [46]: > 100 µM
- TGI [47]: > 100 µM
- TGI [48]: > 100 µM
- TGI [49]: > 100 µM
- TGI [50]: > 100 µM
- TGI [51]: > 100 µM
- TGI [52]: > 100 µM
- TGI [53]: > 100 µM

Compound: O=C1c2c(O)ccc(O)c2C(=O)c2c(NCCNC(=O)C(O)C(O)C(O)C(O)CO)ccc(NCCNC(=O)C(O)C(O)C(O)C(O)CO)c21 (stereo not given)
- TGI [1]: 0.0531 µM
- TGI [3]: 1.53 µM
- TGI [4]: 0.101 µM
- TGI [5]: 2.36 µM
- TGI [7]: 0.578 µM
- TGI [55]: 0.254 µM
- TGI [8]: 1.42 µM
- TGI [9]: 0.483 µM
- TGI [10]: 0.197 µM
- TGI [11]: 1.04 µM
- TGI [56]: 0.0149 µM
- TGI [12]: 1.13 µM
- TGI [14]: 2.7 µM
- TGI [15]: 0.399 µM
- TGI [16]: 1.45 µM
- TGI [18]: 0.534 µM
- TGI [20]: 1.39 µM
- TGI [21]: 2.65 µM
- TGI [57]: 0.243 µM
- TGI [22]: 0.633 µM
- TGI [24]: 0.601 µM
- TGI [25]: 0.524 µM
- TGI [26]: 0.417 µM
- TGI [27]: 0.0159 µM
- TGI [28]: 0.218 µM
- TGI [29]: 2.24 µM
- TGI [30]: 2.29 µM
- TGI [31]: 0.771 µM
- TGI [32]: 1.88 µM
- TGI [33]: 0.528 µM
- TGI [34]: 1.51 µM
- TGI [35]: 0.202 µM
- TGI [36]: 0.812 µM
- TGI [37]: 1.98 µM
- TGI [38]: 0.0291 µM
- TGI [39]: 0.44 µM
- TGI [40]: 2.88 µM
- TGI [42]: 0.522 µM
- TGI [43]: 1.41 µM
- TGI [44]: 0.0118 µM
- TGI [46]: 1.23 µM
- TGI [48]: 2.35 µM
- TGI [49]: 1.37 µM
- TGI [51]: 7.24 µM
- TGI [52]: 1.04 µM
- TGI [53]: 0.352 µM

From PubChem BioAssay (NCI)
